These are literature values, as cited in patent US20190219580A1, “METHODS OF DRUG THERAPY SELECTION FOR BREAST CANCER PATIENTS BASED ON HER2 AND HER3 PATHWAY SUBTYPING” (Nestec S.A., priority 2016, published 2019).

One data set concerns breast cancer. As to conditions: monotherapy.
Data set [1] relates to HER2-positive, locally advanced disease without previous treatment.
The subject of data set [2] is HER2-positive breast cancer.
The subject of data set [3] is HER2-positive metastatic and locally advanced breast cancer. To be noted: first-line therapy.
Data set [4] deals with progressive, locally advanced, or metastatic HER2-positive breast cancer. To be noted: human, in vivo.
Data set [5] relates to tumor xenografts which overexpress HER2. To be noted: in vivo.
Where [6] appears, read: trastuzumab-refractory patients.

SMILES strings stand for the structures. Where two headings read alike, the source gives them in different places.

As for `CS(=O)(=O)CCNCc1ccc(-c2ccc3ncnc(Nc4ccc(OCc5cccc(F)c5)c(Cl)c4)c3c2)o1` [lapatinib], the response rate is reported as 24% with breast cancer (trastuzumab-naive patients) and 5.1% with breast cancer (setting [6]). Besides, the pCR rate in data set [1] (patients with low PTEN expression and PI3 kinase mutation) is given as 87%; in data set [1] (single agent first, followed by trastuzumab/docetaxel ×4 cycles) it was 68%. Further, in data set [2] (with EC-DOC), the “toxicity in the run-in phase” value is “lowered due to toxicity”. Moreover, the “pCR rate (no invasive disease in breast)” value in data set [2] (with epirubicin, cyclophosphamide followed by docetaxel (EC-DOC), n=620) was 35%. Besides, in data set [3], the overall response rate is on record as 24%.

On to `CCCCCOC(=O)Nc1nc(=O)n([C@@H]2O[C@H](C)[C@@H](O)[C@H]2O)cc1F` [capecitabine], for which, in data set [4], the “median TTP” value is reported as 4.4 months.

As for `CCOc1cc2ncc(C#N)c(Nc3ccc(OCc4ccccn4)c(Cl)c3)c2cc1NC(=O)/C=C/CN(C)C` [neratinib], the response rate in the data set with breast cancer (trastuzumab-naive patients) is listed as 56%; in the data set on breast cancer (setting [6]), 26%. Also, in data set [5], the tumor growth entry is listed as “repress tumor growth in a dose-dependent manner”. The “phosphorylation of MAPK and AKT signal transduction pathways” value in the data set with BT474 cell lines was “effectively repressed”.
